# Data taken from article PMC9948168, “Vanillin-Based Indolin-2-one Derivative Bearing a Pyridyl Moiety as a Promising Anti-Breast Cancer Agent via Anti-Estrogenic Activity” (ACS Omega, 2023).
# What was measured:
# Assay in all cases: NCI-60 one-dose screening
# Type in all cases: cell-based
# [1] = test system: 786-0; conditions: Homo sapiens, 786-0, Renal Cancer, read-out: GI (%)
# Experimental: (§1) Compounds 5a–c and 6a–o were tested using standard NCI protocols for in vitro activity at the National Cancer Institute (NCI, Bethesda, Maryland, USA), wherein compounds were tested using one single concentration of 10 μM against 60 cell lines of nine different cancer types. […] Excellent activity was observed against a single NSCLC cell line, EKVX, for compounds 5a–c (GIs = 77–86%, Table 1) with no observed activity for indoles with substituted vanillin 6a–o.
# (§2) Anticancer activity was tested against 60 cancer cell lines at the NCI, Bethesda, USA. The screening process was done with a single dosage of 10 μM according to NCI protocols published on the NCI website https://dtp.cancer.gov/discovery_development/nci-60/methodology.htm.
# [2] = test system: A498; conditions: Homo sapiens, A498, Renal Cancer, read-out: GI (%)
# Experimental: as §1, §2
# [3] = test system: ACHN; conditions: Homo sapiens, Renal Cancer, read-out: GI (%)
# Experimental: as §1, §2
# [4] = test system: CCRF-CEM; conditions: Homo sapiens, Leukemias, read-out: GI (%)
# Experimental: as §1, §2
# [5] = test system: COLO 205; conditions: Homo sapiens, COLO 205, Colon Cancer, read-out: GI (%)
# Experimental: as §1, §2
# [6] = test system: DU-145; conditions: Homo sapiens, DU-145, Prostate Cancer, read-out: GI (%)
# Experimental: as §1, §2
# [7] = test system: HCT-116; conditions: Homo sapiens, HCT-116, Colon Cancer, read-out: GI (%)
# Experimental: as §1, §2
# [8] = test system: HCT-15; conditions: Homo sapiens, HCT-15, Colon Cancer, read-out: GI (%)
# Experimental: as §1, §2
# [9] = test system: HOP-62; conditions: Homo sapiens, HOP-62, Non-Small Cell Lung Cancer, read-out: GI (%)
# Experimental: as §1, §2
# [10] = test system: HOP-92; conditions: Homo sapiens, HOP-92, Non-Small Cell Lung Cancer, read-out: GI (%)
# Experimental: as §1, §2
# [11] = test system: HT29; conditions: Homo sapiens, HT-29, HT29, Colon Cancer, read-out: GI (%)
# Experimental: as §1, §2
# [12] = test system: IGROV1; conditions: Homo sapiens, IGROV-1, IGROV1, Ovarian Cancer, read-out: GI (%)
# Experimental: as §1, §2
# [13] = test system: K-562; conditions: Homo sapiens, K562, K-562, Leukemias, read-out: GI (%)
# Experimental: as §1, §2
# [14] = test system: KM12; conditions: Homo sapiens, KM12, Colon Cancer, read-out: GI (%)
# Experimental: as §1, §2
# [15] = test system: LOX IMVI; conditions: Homo sapiens, Melanoma, read-out: GI (%)
# Experimental: as §1, §2
# [16] = test system: MALME-3M; conditions: Homo sapiens, Melanoma, read-out: GI (%)
# Experimental: as §1, §2
# [17] = test system: MCF7; conditions: Homo sapiens, MCF7, 10 μM; MCF7, Breast Cancer; read-out: GI (%)
# Experimental: as §1, §2
# [18] = test system: MDA-MB-231/ATCC; conditions: Homo sapiens, Breast Cancer, read-out: GI (%)
# Experimental: as §1, §2
# [19] = test system: MDA-MB-435; conditions: Homo sapiens, MDA-MB-435, Melanoma, read-out: GI (%)
# Experimental: as §1, §2
# [20] = test system: MDA-MB-468; conditions: Homo sapiens, MDA-MB-468, Breast Cancer, read-out: GI (%)
# Experimental: as §1, §2
# [21] = test system: NCI-H226; conditions: Homo sapiens, NCI-H226, Non-Small Cell Lung Cancer, read-out: GI (%)
# Experimental: as §1, §2
# [22] = test system: NCI-H322M; conditions: Homo sapiens, Non-Small Cell Lung Cancer, read-out: GI (%)
# Experimental: as §1, §2
# [23] = test system: NCI-H460; conditions: Homo sapiens, NCI-H460, Non-Small Cell Lung Cancer, read-out: GI (%)
# Experimental: as §1, §2
# [24] = test system: OVCAR-5; conditions: Homo sapiens, OVCAR-5, Ovarian Cancer, read-out: GI (%)
# Experimental: as §1, §2
# [25] = test system: OVCAR-8; conditions: Homo sapiens, OVCAR-8, Ovarian Cancer, read-out: GI (%)
# Experimental: as §1, §2
# [26] = test system: PC-3; conditions: Homo sapiens, PC-3, Prostate Cancer, read-out: GI (%)
# Experimental: as §1, §2
# [27] = test system: RPMI-8226; conditions: Homo sapiens, RPMI-8226, Leukemias, read-out: GI (%)
# Experimental: as §1, §2
# [28] = test system: SF-539; conditions: Homo sapiens, SF-539, CNS Cancer, read-out: GI (%)
# Experimental: as §1, §2
# [29] = test system: SK-OV-3; conditions: Homo sapiens, SK-OV-3, Ovarian Cancer, read-out: GI (%)
# Experimental: as §1, §2
# [30] = test system: SN12C; conditions: Homo sapiens, Renal Cancer, read-out: GI (%)
# Experimental: as §1, §2
# [31] = test system: SNB-75; conditions: Homo sapiens, SNB-75, CNS Cancer, read-out: GI (%)
# Experimental: as §1, §2
# [32] = test system: SR; conditions: Homo sapiens, Leukemias, read-out: GI (%)
# Experimental: as §1, §2
# [33] = test system: SW-620; conditions: Homo sapiens, SW-620, Colon Cancer, read-out: GI (%)
# Experimental: as §1, §2
# [34] = test system: TK-10; conditions: Homo sapiens, TK-10, Renal Cancer, read-out: GI (%)
# Experimental: as §1, §2
# [35] = test system: U251; conditions: Homo sapiens, U-251, U251, CNS Cancer, read-out: GI (%)
# Experimental: as §1, §2
# [36] = test system: UACC-257; conditions: Homo sapiens, UACC-257, Melanoma, read-out: GI (%)
# Experimental: as §1, §2
SMILES,inhibition at 10 µM [1] [%],inhibition at 10 µM [2] [%],inhibition at 10 µM [3] [%],inhibition at 10 µM [4] [%],inhibition at 10 µM [5] [%],inhibition at 10 µM [6] [%],inhibition at 10 µM [7] [%],inhibition at 10 µM [8] [%],inhibition at 10 µM [9] [%],inhibition at 10 µM [10] [%],inhibition at 10 µM [11] [%],inhibition at 10 µM [12] [%],inhibition at 10 µM [13] [%],inhibition at 10 µM [14] [%],inhibition at 10 µM [15] [%],inhibition at 10 µM [16] [%],inhibition at 10 µM [17] [%],inhibition at 10 µM [18] [%],inhibition at 10 µM [19] [%],inhibition at 10 µM [20] [%],other results
COc1cc(C=C2C(=O)Nc3ccc(Cl)cc32)ccc1O (mixture of isomers) [5b],0.79,25.6,26,22.6,-11.7,33.1,21.2,25.2,16.5,34.6,-0.33,16.2,28.1,7.96,22.5,3.24,57.5,36.7,19.4,31.3,inhibition at 10 µM [21]: 2.25%; inhibition at 10 µM [22]: 14.1%; inhibition at 10 µM [23]: 7.4%; inhibition at 10 µM [24]: 0.41%; inhibition at 10 µM [25]: 13.8%; inhibition at 10 µM [26]: 13.8%; inhibition at 10 µM [27]: 23.6%; inhibition at 10 µM [28]: 46.4%; inhibition at 10 µM [29]: -6.08%; inhibition at 10 µM [30]: 14.6%; inhibition at 10 µM [31]: 50.1%; inhibition at 10 µM [32]: 47.9%; inhibition at 10 µM [33]: -3.74%; inhibition at 10 µM [34]: -56.3%; inhibition at 10 µM [35]: 39.8%; inhibition at 10 µM [36]: 13.5%
COc1cc(/C=C2/C(=O)Nc3ccccc32)ccc1OCc1ccc(F)cc1 [6c],-6.73,10.8,-2.09,-2.41,-11.2,-6.42,-6.72,-1.14,-0.35,0.18,-4.59,-1.33,-3.95,-0.58,2.75,0.21,12.2,-0.03,-3.45,-2.14,inhibition at 10 µM [21]: -0.42%; inhibition at 10 µM [22]: -3.28%; inhibition at 10 µM [23]: 13.6%; inhibition at 10 µM [24]: -6.64%; inhibition at 10 µM [25]: -1.99%; inhibition at 10 µM [26]: -0.92%; inhibition at 10 µM [27]: -6.91%; inhibition at 10 µM [28]: -2.09%; inhibition at 10 µM [29]: -14.1%; inhibition at 10 µM [30]: 0.05%; inhibition at 10 µM [31]: -5.65%; inhibition at 10 µM [32]: 9.9%; inhibition at 10 µM [33]: -5.55%; inhibition at 10 µM [34]: -29.6%; inhibition at 10 µM [35]: -6.26%; inhibition at 10 µM [36]: -18.2%
COc1cc(/C=C2/C(=O)Nc3ccccc32)ccc1OCc1ccc(Cl)cc1 [6b],-6.18,-15.1,7.31,5.07,-16.1,1.33,13.1,6.05,-0.91,-12.5,-8.68,-2.14,1.45,0.38,0.22,4.51,30.5,1,-6.4,-1.64,inhibition at 10 µM [21]: 3.35%; inhibition at 10 µM [22]: 0.35%; inhibition at 10 µM [23]: 58.9%; inhibition at 10 µM [24]: -0.58%; inhibition at 10 µM [25]: -1.64%; inhibition at 10 µM [26]: 5.22%; inhibition at 10 µM [27]: 2.49%; inhibition at 10 µM [28]: 1.99%; inhibition at 10 µM [29]: -10.5%; inhibition at 10 µM [30]: -2.93%; inhibition at 10 µM [31]: -3.58%; inhibition at 10 µM [32]: 6.17%; inhibition at 10 µM [33]: 3.4%; inhibition at 10 µM [34]: -35.9%; inhibition at 10 µM [35]: -7%; inhibition at 10 µM [36]: -24.7%
